The text below walks through data of publication doi:10.1101/2024.08.12.607575v1 (bioRxiv, 2024).

Bridge positions count the residues as written; N and C are the ends. Peptide text beside a SMILES is read from it.

One data set deals with T1, human recombinant CD206 (Homo sapiens, UniProt P22897).
T1 sequence (P22897 19-1456): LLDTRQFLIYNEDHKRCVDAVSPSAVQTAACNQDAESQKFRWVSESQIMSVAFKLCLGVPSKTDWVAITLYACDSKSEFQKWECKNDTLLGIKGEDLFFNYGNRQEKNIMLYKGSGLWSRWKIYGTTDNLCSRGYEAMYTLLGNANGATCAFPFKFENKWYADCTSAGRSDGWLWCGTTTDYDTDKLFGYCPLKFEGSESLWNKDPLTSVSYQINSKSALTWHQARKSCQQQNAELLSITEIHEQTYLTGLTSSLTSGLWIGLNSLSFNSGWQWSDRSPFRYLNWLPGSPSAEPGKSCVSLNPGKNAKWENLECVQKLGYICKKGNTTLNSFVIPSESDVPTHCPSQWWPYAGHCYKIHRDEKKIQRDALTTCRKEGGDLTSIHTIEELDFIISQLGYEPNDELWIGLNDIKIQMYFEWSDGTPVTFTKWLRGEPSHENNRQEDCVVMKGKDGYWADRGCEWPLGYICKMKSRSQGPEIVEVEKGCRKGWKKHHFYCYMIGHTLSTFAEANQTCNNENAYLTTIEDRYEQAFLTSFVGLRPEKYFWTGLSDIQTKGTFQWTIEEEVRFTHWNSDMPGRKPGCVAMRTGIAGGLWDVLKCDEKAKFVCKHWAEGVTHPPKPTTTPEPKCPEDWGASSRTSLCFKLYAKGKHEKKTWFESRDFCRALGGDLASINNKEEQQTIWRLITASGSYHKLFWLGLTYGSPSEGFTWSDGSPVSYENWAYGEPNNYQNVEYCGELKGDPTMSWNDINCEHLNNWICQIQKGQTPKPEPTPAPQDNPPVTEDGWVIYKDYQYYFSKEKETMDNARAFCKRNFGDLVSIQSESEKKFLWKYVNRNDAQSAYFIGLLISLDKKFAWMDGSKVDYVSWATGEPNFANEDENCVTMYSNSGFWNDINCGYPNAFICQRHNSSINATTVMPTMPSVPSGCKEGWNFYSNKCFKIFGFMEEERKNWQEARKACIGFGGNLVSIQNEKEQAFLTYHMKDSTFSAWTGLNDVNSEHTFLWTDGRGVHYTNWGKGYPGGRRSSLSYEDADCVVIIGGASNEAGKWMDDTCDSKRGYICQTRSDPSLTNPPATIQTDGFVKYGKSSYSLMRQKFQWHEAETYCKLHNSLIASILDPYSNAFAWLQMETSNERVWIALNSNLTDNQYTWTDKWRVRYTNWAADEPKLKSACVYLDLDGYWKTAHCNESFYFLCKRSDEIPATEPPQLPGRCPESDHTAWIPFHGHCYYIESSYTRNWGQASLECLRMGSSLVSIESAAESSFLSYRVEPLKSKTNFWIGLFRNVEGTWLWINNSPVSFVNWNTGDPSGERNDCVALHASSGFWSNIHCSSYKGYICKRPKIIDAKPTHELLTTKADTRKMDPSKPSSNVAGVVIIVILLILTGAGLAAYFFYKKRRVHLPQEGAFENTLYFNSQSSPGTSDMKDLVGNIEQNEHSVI
Kind of data set: Quartz Crystal Microbalance. In kind it is binding. Conditions: QCM, PAH/CD206 multilayer.

Data set [1] has as its system mouse bone marrow-derived macrophages (BMDMs). Kind of data set: Phagocytosis assay. In kind it is cell-based. To be noted: 10 µM 4 h, washed, 48 h follow-up, relative to MACTIDE and untreated.
The next data set deals with CD206. Conditions: recognition moiety for CD206; cited from earlier work.
A further data set relates to orthotopic 4T1.2 tumors. The data set is described as follows: MACTIDE-V monotherapy in orthotopic 4T1.2. In kind it is in vivo, mouse. To be noted: for CD8+ T cell density (mIHC): n=6 mice/group.
Data set [2] concerns mouse bone marrow-derived macrophages (BMDMs). Kind of data set: Flow cytometry of BMDM markers. To be noted: Balb/C BMDMs, 48 h after treatment, not statistically significant. In kind it is cell-based. For orientation: A flow cytometer gives signals particle by particle.
The test system of another data set is orthotopic 4T1 tumors. Kind of data set: In vivo photodynamic therapy / treatment in orthotopic 4T1. The arrangement: species or system mouse. To be noted: 30 nmoles i.p., no irradiation, compared with irradiated MACTIDE-V.
Setting [3] is: tumor cell suspensions, n=4 per group.

In the case of `CC[C@H](C)[C@@H]1NC(=O)[C@@H]2CCCN2C(=O)[C@@H]2CCCN2C(=O)[C@H]([C@@H](C)CC)NC(=O)[C@H](CO)NC(=O)[C@H](CCCCN)NC(=O)[C@H]([C@@H](C)O)NC(=O)[C@@H](NC(=O)CN)CSSC[C@@H](C(=O)N[C@@H](CO)C(=O)N2CCC[C@H]2C(=O)NCC(=O)N[C@@H](C)C(=O)N[C@@H](CCCCN)C(=O)O)NC1=O` [MACTIDE] (H-GCTKSIPPICSPGAK-OH; disulfide 2-10), at human recombinant CD206, the “dissociation upon washing with PBS” value is “incompletely and slowly dissociated”. In addition, in data set [1], the “phagocytosis of fluorescent E. coli particles” value was “no effects”.

`OC[C@H]1OC(O)[C@@H](O)[C@@H](O)[C@@H]1O` (stereo partly drawn) [mannose]: the affinity of mannose entry in the data set on CD206 was “low millimolar range”.

Regarding “Vert-Ahx-AKPCGS-OH [CtrlPep-V, reference compound]”, the “CD8+ T cell density (mIHC)” value in the data set on orthotopic 4T1.2 tumors is recorded as “trend of increased CD8^+ T cell density”.

Regarding “Vert-Ahx-G(CTKSIPPIC)SPGAK-OH (disulfide) [MACTIDE-V]”, the “CD8+ T cell density (mIHC)” value with orthotopic 4T1.2 tumors is “trend of increased CD8^+ T cell density”. Besides, in the data set on orthotopic 4T1.2 tumors (setting [3]), the “percentage of CD206+ cells in tumor (flow cytometry)” value was “did not reduce” and the “polymorphonuclear (PMN) or TAM/monocyte cell populations (flow cytometry)” value is recorded as “no effects”. Besides, in data set [2], the “viability and differentiation of BMDMs” value is on record as “slightly affected”. Moreover, the “body weight, non-irradiated (-)” value in the data set on orthotopic 4T1 tumors is reported as “less effect on body weight”.
